# Source: US20090220566A1, “BIOIMPLANTS FOR USE IN TISSUE GROWTH” (priority 2006, published 2009)
# System: tissue ingrowth, specifically angiogenesis and vascularization
# Conditions: for wound tissue / tissue ingrowth in the pores (histological sections): 3 μl per half implant of 70 μM salt in Hank's balanced salt solution on the closed pore; for conclusion on stimulation of wound healing: selenium at 0.25 ng/mm^3 of the implant, cobalt at 0.45 ng per mm^3 of the implant
# Method: Brushite and hydroxyapatite cuboid bioimplants (434±4 mg dry weight) with a 2D branched structure (Y-shape pore) were produced by cement printing following a method previously developed (Hölzel, 2005). The pore was 1.31 mm diameter and open in the middle of one smaller face and decreased in diameter to 1 mm as it branched in the centre of the block. One branch emerged on an adjacent face while the other was a ‘blind’ closed pore. 5 μl of 70 μM copper sulphate solution was deposited at the end of the blind closed pore of the Y as represented in FIG. 2B. This solution thus contained a total of […] of copper sulphate, i.e. 22 ng of copper ions. It was absorbed onto a small localised volume ca 5 mm^3, of the implant of dimensions 8×8×4 mm, (approximately 250 mm^3). This copper thus represented 88 ng per cm^3.
# Brushite and hydroxyapatite materials were implanted in animals for 15 days in order to observe tissue ingrowth, specifically angiogenesis and vascularization. In order to facilitate observation of tissue ingrowth the implants were made in two mirror image halves that keyed into one another and split the pore cavity along its symmetrical axis (FIG. 2). A 5 μl solution of copper sulfate at low concentration (0.07 mM) was deposited at the end of the closed pore, dried, and implanted in the abdominal cavity (i.e., intraperitoneally) in mice for 15 days. The retrieved implants were opened and examined for tissue ingrowth (FIG. 2C). […] This is in comparison to control implants with no adsorption of copper (FIG. 2D).
# Similar to the implants with copper as described above, solutions (3 μl per half implant) of manganese chloride, sodium selenium, silver nitrate, zinc chloride, and cobalt chloride diluted in Hank's balanced salt solution (vehicle) were adsorbed on the closed pore on each half. They were used respectively at 70 μM. The final amounts of the metals ranged from 10 to 200 ng per implant. These conditions were compared to vehicle (HBBS) as control and copper (70 μM)
# After 15 days of implantation in peritoneal site in mice, the implants were retrieved and histological sections of the tissue ingrowth in the pores were processed.
# [1] = 15 days peritoneal site in mice
# [2] = 3 μl per half implant of 70 μM salt on the closed pore, 15 days peritoneal site in mice
compound,measurement,setting,value
VEGF,mean blood vessel in-growth distance,"mouse, in vivo",3.7 mm
same,mean distance over which blood vessels were observed to grow from the large pore opening to the closed pore end,"mouse, in vivo",nearly the entire length
"O=[Se]([O-])[O-].[Na+].[Na+] [selenium, sodium selenium]",wound tissue / tissue ingrowth in the pores (histological sections),[1],immature wound tissue
same,orientation of tissue ingrowth towards the closed (loaded) pore,[2],oriented towards the closed pore
same,conclusion on stimulation of wound healing,,may enhance tissue maturation
"O=[N+]([O-])[O-].[Ag+] [silver, silver nitrate]",orientation of tissue ingrowth towards the closed (loaded) pore,[2],no orientation towards the closed pore
manganese chloride,wound tissue / tissue ingrowth in the pores (histological sections),[1],a bloody tissue was formed in the pores
"[Cl][Co][Cl] [cobalt, cobalt chloride]",microvessels by histology,[2],microvessels with transgression of inflammatory cells were observed
same,conclusion on stimulation of wound healing,,enhances particularly blood vessel formation
"[Cl-].[Cl-].[Zn+2] [zinc, zinc chloride]",orientation of tissue ingrowth towards the closed (loaded) pore,[2],no orientation towards the closed pore
O=S(=O)([O-])[O-].[Cu+2] [copper sulfate],blood vessels observed,"mouse, in vivo",No blood vessels were observed
same,concentrations of copper suitable to encourage endothelial cell growth into a 1.3 mm diameter pore opening at the surface of an implant,"mouse, in vivo",below 20 μg/mm^3
same,mean blood vessel in-growth distance,"mouse, in vivo",4.3 mm
same,mean distance over which blood vessels were observed to grow from the large pore opening to the closed pore end,"mouse, in vivo",nearly the entire length
same,tissue infiltrating the pore,"mouse, in vivo",tissue rich in leukocytes and dead cells
same,tissue ingrowth in the pores,"mouse, in vivo",vascular tissue
